tested on: BE(2)-C cell; test: Cell proliferation assay (MTS) in BE(2)-C cells; assay type: cell-based; settings: Homo sapiens, inhibition of BE(2)-C cell proliferation, 48 h
Procedure: MTS testing kit was purchased from Promega. The DMEM, Fetal bovine serum and Penicillin-Streptomycin were purchased from Gibco. Dimethyl sulfoxide (DMSO) was purchased from Sigma.
To investigate whether a compound is able to inhibit the activity of CDK4/6 in cells, mechanism-based assays using BE(2)-C cell (ATCC® number:CRL-2268) were developed. In the assay, inhibition of CDK4/6 was detected by the inhibition of BE(2)-C cell cells proliferation. BE(2)-C cell cells were cultured in culture flasks to 40-80% confluence in DMEM plus 10% fetal bovine serum. Cells were collected and plated onto 96-well plates at cell density of 3000 cells/well. Plates were incubated overnight at 37° C., with 5% CO2 to adhere. Compounds were added to the plates, the final compound concentrations were 10000, 3333, 1111, […], 123.5, 41.2, 13.7, 4.6 and 1.5 nM. Place plates at 37° C., with 5% CO2 for 48 h. After removing the medium, 20 μl MTS/100 μl medium mixture solution were added to each well and incubate the plates for exactly 2 hours. The reaction was terminated by adding 25 μl 10% SDS per well. Measure absorbance at 490 nm and 650 nm (reference wavelength). IC50 was calculated using GraphPad Prism 5.0.
Select compounds prepared as described above were assayed according to the biological procedures described herein. “++++” stands for IC50 value below about 10 nM. “+++” stands for IC50 value between greater than about 10 nM to about 100 nM. “++” stands for IC50 value between greater than about 100 nM to about […]. “+” stands for IC50 value greater than 1 μM.

`CC1CCc2nc3c(F)cc(-c4nc(Nc5ccc(CN6CCNCC6)cn5)ncc4F)cc3n21` (stereo in doubt) [Example 155, (R)-5-fluoro-4-(5-fluoro-1-methyl-2,3-dihydro-1H-benzo[d]pyrrolo[1,2-a]imidazol-7-yl)-N-(5-(piperazin-1-ylmethyl)pyridin-2-yl)pyrimidin-2-amine] and `COC[C@@H]1CCc2nc3c(F)cc(-c4nc(Nc5ccc(CN6CCNCC6)cn5)ncc4F)cc3n21` [Example 7, (S)-5-fluoro-4-(5-fluoro-1-(methoxymethyl)-2,3-dihydro-1H-benzo[d]pyrrolo[1,2-a]imidazol-7-yl)-N-(5-(piperazin-1-ylmethyl)pyridin-2-yl)pyrimidin-2-amine] cannot be ordered by IC50: over 100 nM for the first, over 100 nM for the second.

`OC[C@@H]1CCc2nc3c(F)cc(-c4nc(Nc5ccc(CN6CCNCC6)cn5)ncc4F)cc3n21` [Example 1, (S)-(5-fluoro-7-(5-fluoro-2-((5-(piperazin-1-ylmethyl)pyridin-2-yl)amino)pyrimidin-4-yl)-2,3-dihydro-1H-benzo[d]pyrrolo[1,2-a]imidazol-1-yl)methanol] and `FC[C@@H]1CCc2nc3c(F)cc(-c4nc(Nc5ccc(CN6CCNCC6)cn5)ncc4F)cc3n21` [Example 4, (S)-5-fluoro-4-(5-fluoro-1-(fluoromethyl)-2,3-dihydro-1H-benzo[d]pyrrolo[1,2-a]imidazol-7-yl)-N-(5-(piperazin-1-ylmethyl)pyridin-2-yl)pyrimidin-2-amine] cannot be ordered by IC50: over 1000 nM for the first, over 100 nM for the second.

`CN1CCN(Cc2ccc(Nc3ncc(F)c(-c4cc(F)c5nc6n(c5c4)[C@H](CO)CC6)n3)nc2)CC1` [Example 2, (S)-(5-fluoro-7-(5-fluoro-2-((5-((4-methylpiperazin-1-yl)methyl)pyridin-2-yl)amino)pyrimidin-4-yl)-2,3-dihydro-1H-benzo[d]pyrrolo[1,2-a]imidazol-1-yl)methanol] and `CN1CCN(Cc2ccc(Nc3ncc(F)c(-c4cc(F)c5nc6n(c5c4)[C@H](CF)CC6)n3)nc2)CC1` [Example 5, (S)-5-fluoro-4-(5-fluoro-1-(fluoromethyl)-2,3-dihydro-1H-benzo[d]pyrrolo[1,2-a]imidazol-7-yl)-N-(5-((4-methylpiperazin-1-yl)methyl)pyridin-2-yl)pyrimidin-2-amine] cannot be ordered by IC50: over 100 nM for the first, over 100 nM for the second.

`CCN1CCN(Cc2ccc(Nc3ncc(F)c(-c4cc(F)c5nc6n(c5c4)[C@H](CO)CC6)n3)nc2)CC1` [Example 3, (S)-(7-(2-((5-((4-ethylpiperazin-1-yl)methyl)pyridin-2-yl)amino)-5-fluoropyrimidin-4-yl)-5-fluoro-2,3-dihydro-1H-benzo[d]pyrrolo[1,2-a]imidazol-1-yl) methanol] and `CCN1CCN(Cc2ccc(Nc3ncc(F)c(-c4cc(F)c5nc6n(c5c4)[C@H](CF)CC6)n3)nc2)CC1` [Example 6, (S)—N-(5-((4-ethylpiperazin-1-yl)methyl)pyridin-2-yl)-5-fluoro-4-(5-fluoro-1-(fluoromethyl)-2,3-dihydro-1H-benzo[d]pyrrolo[1,2-a]imidazol-7-yl)pyrimidin-2-amine] cannot be ordered by IC50: over 100 nM for the first, over 100 nM for the second.

`COC[C@@H]1CCc2nc3c(F)cc(-c4nc(Nc5ccc(CN6CCN(C)CC6)cn5)ncc4F)cc3n21` [Example 8, (S)-5-fluoro-4-(5-fluoro-1-(methoxymethyl)-2,3-dihydro-1H-benzo[d]pyrrolo[1,2-a]imidazol-7-yl)-N-(5-((4-methylpiperazin-1-yl)methyl)pyridin-2-yl)pyrimidin-2-amine] and `CCN1CCN(Cc2ccc(Nc3ncc(F)c(-c4cc(F)c5nc6n(c5c4)[C@H](COC)CC6)n3)nc2)CC1` [Example 9, (S)—N-(5-((4-ethylpiperazin-1-yl)methyl)pyridin-2-yl)-5-fluoro-4-(5-fluoro-1-(methoxymethyl)-2,3-dihydro-1H-benzo[d]pyrrolo[1,2-a]imidazol-7-yl)pyrimidin-2-amine] cannot be ordered by IC50: over 100 nM for the first, over 100 nM for the second.

Compared with `Fc1cnc(Nc2ccc(CN3CCNCC3)cn2)nc1-c1cc(F)c2nc3n(c2c1)[C@H](C(F)F)CC3` [Example 10, (S)-4-(1-(difluoromethyl)-5-fluoro-2,3-dihydro-1H-benzo[d]pyrrolo[1,2-a]imidazol-7-yl)-5-fluoro-N-(5-(piperazin-1-ylmethyl)pyridin-2-yl)pyrimidin-2-amine], `Fc1cnc(Nc2ccc(CN3CCNCC3)cn2)nc1-c1cc(F)c2nc3n(c2c1)[C@H](C(F)(F)F)CC3` [Example 16, (S)-5-fluoro-4-(5-fluoro-1-(trifluoromethyl)-2,3-dihydro-1H-benzo[d]pyrrolo[1,2-a]imidazol-7-yl)-N-(5-(piperazin-1-ylmethyl)pyridin-2-yl)pyrimidin-2-amine] is lower in IC50: over 100 nM for the first, 10 to 100 nM for the second.

`Fc1cnc(Nc2ccc(CN3CCNCC3)cn2)nc1-c1cc(F)c2nc3n(c2c1)C1(CC3)CC1` [Example 13, 5-fluoro-4-(5-fluoro-2,3-dihydrospiro[benzo[d]pyrrolo[1,2-a]imidazole-1,1′-cyclopropan]-7-yl)-N-(5-(piperazin-1-ylmethyl)pyridin-2-yl)pyrimidin-2-amine] and `CN1CCN(Cc2ccc(Nc3ncc(F)c(-c4cc(F)c5nc6n(c5c4)C4(CC6)CC4)n3)nc2)CC1` [Example 14, 5-fluoro-4-(5-fluoro-2,3-dihydrospiro[benzo[d]pyrrolo[1,2-a]imidazole-1,1′-cyclopropan]-7-yl)-N-(5-((4-methylpiperazin-1-yl)methyl)pyridin-2-yl)pyrimidin-2-amine] cannot be ordered by IC50: over 100 nM for the first, over 100 nM for the second.

First: CCN1CCN(Cc2ccc(Nc3ncc(F)c(-c4cc(F)c5nc6n(c5c4)C4(CC6)CC4)n3)nc2)CC1 [Example 15, N-(5-((4-ethylpiperazin-1-yl)methyl)pyridin-2-yl)-5-fluoro-4-(5-fluoro-2,3-dihydrospiro[benzo[d]pyrrolo[1,2-a]imidazole-1,1′-cyclopropan]-7-yl)pyrimidin-2-amine]
Second: CCN1CCN(Cc2ccc(Nc3ncc(F)c(-c4cc(F)c5nc6n(c5c4)[C@H](C(F)(F)F)CC6)n3)nc2)CC1 [Example 18, (S)—N-(5-((4-ethylpiperazin-1-yl)methyl)pyridin-2-yl)-5-fluoro-4-(5-fluoro-1-(trifluoromethyl)-2,3-dihydro-1H-benzo[d]pyrrolo[1,2-a]imidazol-7-yl)pyrimidin-2-amine]
The IC50 of the first is higher: over 100 nM for the first, 10 to 100 nM for the second. The second is the more potent here.

Compared with `CN1CCN(Cc2ccc(Nc3ncc(F)c(-c4cc(F)c5nc6n(c5c4)[C@H](C(F)(F)F)CC6)n3)nc2)CC1` [Example 17, (S)-5-fluoro-4-(5-fluoro-1-(trifluoromethyl)-2,3-dihydro-1H-benzo[d]pyrrolo[1,2-a]imidazol-7-yl)-N-(5-((4-methylpiperazin-1-yl)methyl)pyridin-2-yl)pyrimidin-2-amine], `FC[C@@H]1CCc2nc3c(F)cc(-c4nc(Nc5ccc(CN6CCN7CCC[C@@H]7C6)cn5)ncc4F)cc3n21` [Example 19, 5-fluoro-4-((S)-5-fluoro-1-(fluoromethyl)-2,3-dihydro-1H-benzo[d]pyrrolo[1,2-a]imidazol-7-yl)-N-(5-(((R)-hexahydropyrrolo[1,2-a]pyrazin-2(1H)-yl)methyl)pyridin-2-yl)pyrimidin-2-amine] is lower in IC50: 10 to 100 nM for the first, under 10 nM for the second.

For `FC[C@@H]1CCc2nc3c(F)cc(-c4nc(Nc5ccc(CN6CC7(CCNCC7)C6)cn5)ncc4F)cc3n21` [Example 20, (S)-N-(5-((2,7-diazaspiro[3.5]nonan-2-yl)methyl)pyridin-2-yl)-5-fluoro-4-(5-fluoro-1-(fluoro-methyl)-2,3-dihydro-1H-benzo[d]pyrrolo[1,2-a]imidazol-7-yl)pyrimidin-2-amine], the IC50 was over 1000 nM.
